Assay results published in patent publication US7759337B2, “Phthalazine compounds and methods of use” (Amgen Inc., priority 2005, dated 2010).

The molecules below were run on production of TNF by monocytes activated with bacterial lipopolysaccharide (LPS) (assay: Lipopolysaccharide-activated monocyte TNF production assay). Conditions: Homo sapiens; whole blood monocyte assay (LPS induced TNF release).
Type: cell-based
Outline: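 Adherent human PBMC-derived monocytes preincubated 60 min with nine two-fold compound dilutions, then stimulated with E. coli K532 LPS (30 ng/mL in the added medium) for 4 h at 37 °C. Supernatant TNF measured by sandwich ELISA; IC50 is the compound concentration halving TNF production, from second-order polynomial fits.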
Molecule `Cc1ccc(C(N)=O)cc1-c1ccc2c(-c3cc(F)ncc3C)nncc2c1` [Example 259, 3-[1-(2-fluoro-5-methylpyridin-4-yl)phthalazin-6-yl]-4-methylbenzamide] has an IC50 of no more than 5 µM.
With `Cc1sc(C(=O)NC2CC2)cc1-c1ccc2c(N3CCOCC3)nncc2c1` [Example 80, N-Cyclopropyl-5-methyl-4-(1-morpholin-4-ylphthalazin-6-yl)thiophene-2-carboxamide] the IC50 was no more than 5 µM.
`Cc1ccc(C(N)=O)cc1-c1ccc2c(NC(C)C)nncc2c1` [Example 179, 3-[1-(isopropylamino)phthalazin-6-yl]-4-methylbenzamide] showed an IC50 of no more than 5 µM.
In the case of `Cc1ccc(C(N)=O)cc1-c1ccc2c(-c3cncnc3)nncc2c1` [Example 215, 4-methyl-3-(1-pyrimidin-5-ylphthalazin-6-yl)benzamide], the IC50 is reported as no more than 5 µM.
For `CC(C)Nc1noc2c(-c3ccc4c(N5CCOC[C@@H]5C)nncc4c3)c(Cl)ccc12` [Example 402, 6-chloro-N-isopropyl-7-{1-[(3S)-3-methylmorpholin-4-yl]phthalazin-6-yl}-1,2-benzisoxazol-3-amine], the IC50 was no more than 5 µM.
In the case of `Cc1ccc(C(=O)NC2CC2)cc1-c1ccc2c(N3CCN4C(=O)OC[C@@H]4C3)nncc2c1` [Example 101, 3-{1-[(8aS)-3-oxotetrahydro[1,3]oxazolo[3,4-a]pyrazin-7(1H)-yl]phthalazin-6-yl}-N-cyclopropyl-4-methylbenzamide], the IC50 is reported as no more than 5 µM.
Work on `CC(=O)N1CCN(c2nncc3cc(-c4cc(C(=O)NC5CC5)ccc4C)ccc23)CC1` [Example 157, 3-[1-(4-acetylpiperazin-1-yl)phthalazin-6-yl]-N-cyclopropyl-4-methylbenzamide] yielded an IC50 of no more than 5 µM.
Work on `Cc1cc(F)ccc1-c1nncc2cc(-c3c(C)ccc4c(NC5CC5)noc34)ccc12` [Example 377, N-cyclopropyl-7-[1-(4-fluoro-2-methylphenyl)phthalazin-6-yl]-6-methyl-1,2-benzisoxazol-3-amine] yielded an IC50 of no more than 5 µM.
`COc1cccc(-c2nncc3cc(-c4cc(C(N)=O)ccc4C)ccc23)c1OC` [Example 198, 3-[1-(2,3-dimethoxyphenyl)phthalazin-6-yl]-4-methylbenzamide] was tested, and the IC50 was no more than 5 µM.
`Cc1ccc(C(=O)NC2CC2)cc1-c1ccc2c(N3C[C@H](C)OC[C@H]3C)nncc2c1` [Example 173, N-cyclopropyl-3-{1-[(2S,5R)-2,5-dimethylmorpholin-4-yl]phthalazin-6-yl}-4-methylbenzamide] showed an IC50 of no more than 5 µM.
Molecule `Cc1ccc(C(=O)NC2CC2)cc1-c1ccc2c(N3C[C@@H]4C[C@H]3CN4)nncc2c1` [Example 125, N-cyclopropyl-3-{1-[(1S,4S)-2,5-diazabicyclo[2.2.1]hept-2-yl]phthalazin-6-yl}-4-methylbenzamide] has an IC50 of no more than 5 µM.
Work on `CCNc1noc2c(-c3ccc4c(N5CCOC[C@@H]5C)nncc4c3)c(C)ccc12` [Example 384, N-ethyl-6-methyl-7-{1-[(3S)-3-methylmorpholin-4-yl]phthalazin-6-yl}-1,2-benzisoxazol-3-amine] yielded an IC50 of no more than 5 µM.
In the case of `Cc1ccc(C(=O)NC2CC2)cc1-c1ccc2c(N3C[C@@H]4C[C@H]3CN4C(=O)OC(C)(C)C)nncc2c1` [Example 126, tert-butyl (1S,4S)-5-(6-{5-[(cyclopropylamino)carbonyl]-2-methylphenyl}phthalazin-1-yl)-2,5-diazabicyclo[2.2.1]heptane-2-carboxylate], the IC50 is reported as no more than 5 µM.
`Fc1ccc(Oc2ccc3c(-c4ccsc4)nncc3c2)cc1` [Example 337, 6-(4-fluorophenoxy)-1-thien-3-ylphthalazine] gave an IC50 of no more than 5 µM.
`Cc1ccc(C(=O)NC2CC2)cc1-c1ccc2c(N3CCC(O)(C(C)C)CC3)nncc2c1` [Example 61, N-cyclopropyl-3-(1-(4-hydroxy-4-isopropylpiperidin-1-yl)phthalazin-6-yl)-4-methylbenzamide] gave an IC50 of no more than 5 µM.
For `Cc1ccc(C(=O)NC2CC2)cc1-c1ccc2c(C3CCNCC3)nncc2c1` [Example 64, N-cyclopropyl-4-methyl-3-(1-(piperidin-4-yl)phthalazin-6-yl)benzamide], the IC50 was no more than 5 µM.
For `Cc1ccc(C(N)=O)cc1-c1ccc2c(-c3ccc(Cl)cc3C)nncc2c1` [Example 232, 3-[1-(4-chloro-2-methylphenyl)phthalazin-6-yl]-4-methylbenzamide], the IC50 was no more than 5 µM.
`Cc1ccc(C(=O)NC2CC2)cc1-c1ccc2c(OC3CCN(C)CC3)nncc2c1` [Example 319, N-cyclopropyl-4-methyl-3-{1-[(1-methylpiperidin-4-yl)oxy]phthalazin-6-yl}benzamide] gave an IC50 of no more than 5 µM.
For `Cc1ccc(C(N)=O)cc1-c1ccc2c(-c3ccc(S(C)(=O)=O)cc3C)nncc2c1` [Example 96, 4-methyl-3-(1-(2-methyl-4-(methylsulfonyl)phenyl)phthalazin-6-yl)benzamide], the IC50 was no more than 5 µM.
`Cc1ccc(C(=O)NC2CC2)cc1-c1ccc2c(N3[C@H](C)CC[C@H]3C)nncc2c1` [Example 395, N-cyclopropyl-3-{1-[(2R,5R)-2,5-dimethylpyrrolidin-1-yl]phthalazin-6-yl}-4-methylbenzamide] showed an IC50 of no more than 5 µM.
`Cc1ccccc1-c1nncc2cc(Oc3ccc(F)cc3)ccc12` [Example 340, 6-(4-fluorophenoxy)-1-(2-methylphenyl)phthalazine] gave an IC50 of no more than 5 µM.
`Cc1ccc(C(N)=O)cc1-c1ccc2c(-c3ccc([S+](C)[O-])cc3C)nncc2c1` (centres unmarked) [Example 243, 4-methyl-3-{1-[2-methyl-4-(methylsulfinyl)phenyl]phthalazin-6-yl}benzamide] was tested, and the IC50 was no more than 5 µM.
In the case of `Cc1ccc(C(N)=O)cc1-c1ccc2c(Oc3ccccc3)nncc2c1` [Example 406, 4-methyl-3-(1-phenoxyphthalazin-6-yl)benzamide], the IC50 is reported as no more than 5 µM.
In the case of `Cc1cc(NC(=O)c2ccc(C)c(-c3ccc4c(N5CCOCC5)nncc4c3)c2)no1` [Example 380, 4-methyl-N-(5-methylisoxazol-3-yl)-3-(1-morpholin-4-ylphthalazin-6-yl)benzamide], the IC50 is reported as no more than 5 µM.
Work on `Cc1ccc(C(=O)NC2CC2)cc1-c1ccc2c(-c3ccc(F)cc3C)nncc2c1` [Example 286, N-cyclopropyl-3-[1-(4-fluoro-2-methylphenyl)phthalazin-6-yl]-4-methylbenzamide] yielded an IC50 of no more than 5 µM.
In the case of `CNc1noc2c(-c3ccc4c(-c5ccccc5C)nncc4c3)c(C)ccc12` [Example 396, N,6-dimethyl-7-[1-(2-methylphenyl)phthalazin-6-yl]-1,2-benzisoxazol-3-amine], the IC50 is reported as no more than 5 µM.
`COC(=O)c1ccccc1Oc1ccc2c(-c3ccccc3C)nncc2c1` [Example 342, methyl 2-{[1-(2-methylphenyl)phthalazin-6-yl]oxy}benzoate] was tested, and the IC50 was no more than 5 µM.
Molecule `COc1ccc(-c2nncc3cc(-c4cc(C(=O)NC5CC5)ccc4C)ccc23)c(C(F)(F)F)c1` [Example 258, N-cyclopropyl-3-{1-[4-methoxy-2-(trifluoromethyl)phenyl]phthalazin-6-yl}-4-methylbenzamide] has an IC50 of no more than 5 µM.
With `CC(=O)N1CCN(c2nncc3cc(-c4cc(C(=O)NC5CC5)ccc4C)ccc23)[C@@H](C)C1` [Example 371, 3-{1-[(2S)-4-acetyl-2-methylpiperazin-1-yl]phthalazin-6-yl}-N-cyclopropyl-4-methylbenzamide] the IC50 was no more than 5 µM.
For `Cc1ccc(C(=O)NC2CC2)cc1-c1ccc2c(N3CCN4C(=O)OC[C@H]4C3)nncc2c1` [Example 99, 3-{1-[(8aR)-3-oxotetrahydro[1,3]oxazolo[3,4-a]pyrazin-7(1H)-yl]phthalazin-6-yl}-N-cyclopropyl-4-methylbenzamide], the IC50 was no more than 5 µM.
`COc1cc(-c2nncc3cc(-c4cc(C(N)=O)ccc4C)ccc23)c(C)cn1` [Example 252, 3-[1-(2-methoxy-5-methylpyridin-4-yl)phthalazin-6-yl]-4-methylbenzamide] was tested, and the IC50 was no more than 5 µM.
`CNC(=O)c1ccc(C)c(-c2ccc3c(NC(C)C)nncc3c2)c1` [Example 10, 3-(1-(isopropylamino)phthalazin-6-yl)-N,4-dimethylbenzamide] gave an IC50 of no more than 5 µM.
Work on `COC[C@H](C)Nc1nncc2cc(-c3cc(C(N)=O)ccc3C)ccc12` [Example 190, 3-(1-{[(1S)-2-methoxy-1-methylethyl]amino}phthalazin-6-yl)-4-methylbenzamide] yielded an IC50 of no more than 5 µM.
Molecule `Cc1ccc(C(N)=O)cc1-c1ccc2c(N3CCN4C(=O)OC[C@H]4C3)nncc2c1` [Example 284, 3-{1-[(8aR)-3-oxotetrahydro[1,3]oxazolo[3,4-a]pyrazin-7(1H)-yl]phthalazin-6-yl}-4-methylbenzamide] has an IC50 of no more than 5 µM.
`Cc1ccc(C(N)=O)cc1-c1ccc2c(N(C)C3CCCCC3)nncc2c1` [Example 291, 3-{1-[cyclohexyl(methyl)amino]phthalazin-6-yl}-4-methylbenzamide] gave an IC50 of no more than 5 µM.
Molecule `Cc1ccc(S(C)(=O)=O)cc1-c1ccc2c(N3CCOCC3)nncc2c1` [Example 195, 6-[2-methyl-5-(methylsulfonyl)phenyl]-1-morpholin-4-ylphthalazine] has an IC50 of no more than 5 µM.
`Cc1ccc(C(=O)NC2CC2)cc1-c1ccc2c(-c3ccc(C(F)(F)F)cc3C(F)(F)F)nncc2c1` [Example 11, 3-(1-(2,4-bis(trifluoromethyl)phenyl)phthalazin-6-yl)-N-cyclopropyl-4-methylbenzamide] gave an IC50 of no more than 5 µM.
`NC(=O)c1ccc(Cl)c(-c2ccc3c(N4CCOCC4)nncc3c2)c1` [Example 73, 4-Chloro-3-(1-morpholin-4-ylphthalazin-6-yl)benzamide] gave an IC50 of no more than 5 µM.
With `Cc1ccc(C(N)=O)cc1-c1ccc2c(N3CCNC[C@H]3C)nncc2c1` [Example 143, 4-methyl-3-{1-[(2R)-2-methylpiperazin-1-yl]phthalazin-6-yl}benzamide] the IC50 was no more than 5 µM.
`Cc1ccccc1-c1ccc2c(N3CCOCC3c3ccc(Cl)cc3)nncc2c1` (centres unmarked) [Example 17, 1-(3-(4-chlorophenyl)morpholino)-6-o-tolylphthalazine] gave an IC50 of no more than 5 µM.
`CC(=O)c1nnc(C)c2cc(-c3cc(C(=O)NC4CC4)ccc3C)ccc12` [Example 84, 3-(1-Acetyl-4-methylphthalazin-6-yl)-N-cyclopropyl-4-methylbenzamide] showed an IC50 of no more than 5 µM.
